Structures can show the parent of a compound that is named as a salt. Where two headings read alike, the source gives them in different places.
Tests used:
[1] = Solid-state stability under 40° C./75% RH for one week; assay type: physicochemical
[2] = Hygroscopicity (DVS tests); assay type: physicochemical; conditions: for Hygroscopicity (%): water uptake at 25° C./80% RH
[3] = Kinetic solubility in pH 2, 5, and 7 buffers; assay type: physicochemical; conditions: for Kinetic Solubility: in pH 2, 5 and 7 buffers, compared with freebase Form A
ALK5 [4] = biological target: T1, ALK5 (Homo sapiens, UniProt P36897); assay: Rhabdomyosarcoma (RD) cell SMAD reporter (RDSR) assay; assay type: cell-based; parameters: The RD cell line was transfected with the pGL4.48(luc2P/SBE/Hygro) vector; endogenous in cells; host or cells: RD rhabdomyosarcoma cells stably transfected with the SBE-luciferase reporter only; conditions: RD cells transfected with pGL4.48(luc2P/SBE/Hygro) vector, pretreated with drug, induced with 50 pg/mL TGFβ1 for up to 24 hours; structure (I) tested as HCl salt
T1 sequence (P36897 34-503): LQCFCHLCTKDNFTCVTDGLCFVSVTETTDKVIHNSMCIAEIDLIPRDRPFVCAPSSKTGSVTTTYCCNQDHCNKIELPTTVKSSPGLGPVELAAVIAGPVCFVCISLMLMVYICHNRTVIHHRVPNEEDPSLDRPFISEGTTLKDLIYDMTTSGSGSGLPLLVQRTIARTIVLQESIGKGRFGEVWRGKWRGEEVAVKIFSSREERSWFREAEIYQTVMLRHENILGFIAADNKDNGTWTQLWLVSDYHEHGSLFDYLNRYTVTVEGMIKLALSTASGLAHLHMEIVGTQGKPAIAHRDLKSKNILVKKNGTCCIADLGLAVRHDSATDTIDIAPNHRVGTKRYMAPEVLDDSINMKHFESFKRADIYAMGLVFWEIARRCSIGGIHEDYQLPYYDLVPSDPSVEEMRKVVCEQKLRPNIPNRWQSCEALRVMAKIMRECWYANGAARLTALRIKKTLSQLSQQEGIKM

ALK5 [5] = biological target: T1, ALK5; assay: ALK5 nanobret assay in HEK293 cells transfected with ALK5-Nanoluc fusion; assay type: binding; conditions: luciferase tagged ALK5, fluorescent tracer competition (BRET), structure (I) tested as HCl salt
Description: An HCl salt of the compound of structure (I) was tested in an ALK5 nanobret assay. HEK293 cells were transfected with the ALK5-Nanoluc fusion (Promega) vector, which encodes for a luciferase tagged form of ALK5. For testing of the compound of structure (I), transfected cells were pretreated with drug. Subsequently, a fluorescent tracer was added and the fluorescence signal was measured.
In this assay, luminescence develops via the nanoluciferase tagged ALK5, which can transfer signal via bioluminescence energy transfer (BRET) to the tracer, yielding a fluorescent signal.

Row | Solid-state Stability [1] | form change after DVS tests [2] | Hygroscopicity (%) [2] | Solid-state Stability ([1]; listed as HCl salt Form A) | Kinetic Solubility [3] | Kinetic Solubility ([3]; listed as HCl Form A) | disproportionation ([3]; pH 7 buffer) | Hygroscopicity ([2]; class based on water uptake at 25° C./80% RH) | IC50 (ALK5 [4]) | IC50 (ALK5 [5]) | SMILES
1 | Good physicochemical properties under | no form change | (0.60) % | – | – | – | – | – | – | – | COc1cc(Nc2nccc(Nc3cccnc3-c3ccccn3)n2)ccc1N1CCN(C)CC1 [Freebase Form A]
2 | Good physicochemical properties under | no form change | (0.86) % | good physicochemical properties | increased solubility | HCl Form A showed increased solubility | disproportionation was observed | Slightly hygroscopic | – | – | COc1cc(Nc2nccc(Nc3cccnc3-c3ccccn3)n2)ccc1N1CCN(C)CC1 [HCl Salt Form A]
3 | – | – | – | – | – | – | – | – | 309 nM | 2300 nM | COc1cc(Nc2nccc(Nc3cccnc3-c3ccccn3)n2)ccc1N1CCN(C)CC1 [compound of structure (I)]

Source: US20240075033A1, “ALK5 INHIBITORS FOR TREATING MYELODYSPLASTIC SYNDROME” (Sumitomo Pharma Oncology, Inc., priority 2019, published 2024)
